# Reference: patent US20200079906A1, “PHOTODYNAMIC THERAPY COMPLEX” (University College Cardiff Consultants Limited, priority 2015, published 2020)
# “Also recorded” adds a separate entry of the source.
# How the values were obtained:
# Assay in all cases: Antimicrobial photodynamic protocol, viable cell count after laser exposure
# Assay type in all cases: cell-based
# [1] = tested on: Pseudomonas aeruginosa (NCIMB10548); conditions: TBO series, P. aeruginosa
# Description: (§1) The organisms used in this study were Escherichia coli (NCTC10418) and Staphylococcus epidermidis (ATCC12228), Pseudomonas aeruginosa (NCIMB10548), Methicillin Resistant Staphylococcus aureus (NCTC12493), Streptococcus pyogenes (ATCC19615) and Acinetobacter baumannii (NCIMB9214); they were stored at −80° C. These organisms were subcultured, when needed, on Brain Heart Infusion (BHI) Agar overnight aerobically at 37° C. The plates were then stored at 4° C. for no more than two weeks. Bacterial suspensions used for the experiments were grown in Brain Heart Infusion (BHI) broth after inoculation with a loopful of cells from a single colony on a BHI plate and incubated aerobically for 24 h at 37° C. statically. These overnight cultures were then diluted 1 in 100 in PBS. The resulting bacterial suspension contained approximately 10^6 CFU/mL. Each cell suspension was used to disperse pure PS, e.g. PBAE-TBO, to concentrations of 0.2 mg/mL or PBAEs-PS derivatives to an equivalent PS concentration.
# (§2) 200 μL aliquots of the resulting suspension were immediately poured in a GREINER 96 U-BOTTOM well plate. The well plate was then irradiated with a laser light (633 nm) using a 500 mW red laser (RRL-635 nm-500 mW-1080060, Changchun New Industries Optoelectronics, China) or a 500 mW green laser (MGL-FN-532 nm-500 mW-15097031, Changchun New Industries Optoelectronics, China) for different time periods (between 5 sec to 3 min). The red laser was employed for TBO while the green laser was used for RB and ERY.
# (§3) After exposure the bacterial cells (L+S+) were counted through serial dilutions and then plating on BHI Agar. Along this test, different experiments were performed including the testing of dark toxicity (labelled with L−S+), samples exposed uniquely to laser light (L+S−) or samples not expose to either laser light and PBAE (L−S−).
# (§4) Through the experiment prepared samples, well plates and inoculated plates were immediately covered with aluminium foil to reduce biased measuring results due to exposure of any light besides the laser. All plates were incubated after the experiment for 24 hours at 37° C. All experiments were performed on three independent cultures.
# [2] = tested on: Staphylococcus epidermidis (ATCC12228); conditions: TBO series
# Description: as §1, §2, §3, §4
# [3] = tested on: Escherichia coli (NCTC10418); conditions: E. coli; for Antimicrobial activity (Log10 reduction of viable cells): green laser, 3 min laser exposure
# Description: as §1, §2, §3, §4
# [4] = tested on: Acinetobacter baumannii (NCIMB9214); conditions: TBO series, A. baumannii
# Description: as §1, §2, §3, §4
# [5] = tested on: Methicillin Resistant Staphylococcus aureus (NCTC12493); conditions: for Antimicrobial activity (Log10 reduction of viable cells): green laser, 5 sec, MRSA NCTC12493
# Description: as §1, §2, §3, §4
# [6] = tested on: Streptococcus pyogenes (ATCC19615); conditions: TBO series
# Description: as §1, §2, §3, §4
# [7] = L+S+, red laser, 0.2 mg/mL TBO equivalent
compound,measurement,setting,value
"Cc1cc2nc3ccc(=[N+](C)C)cc-3sc2cc1N.[Cl-] [TBO, Toluidine Blue O]",Antimicrobial effect of laser exposure (reduction of viable cells),[1]; [7],tendencies of progressive reduction
same,Cell reduction without irradiation (dark toxicity),[1]; L-S+,did not return any cell reduction
same,Antimicrobial effect of laser exposure (reduction of viable cells),[2]; [7],tendencies of progressive reduction
same,Cell reduction without irradiation (dark toxicity),[2]; L-S+,did not return any cell reduction
same,Antimicrobial effect of laser exposure (reduction of viable cells),"[3]; TBO series, L+S+, red laser, 0.2 mg/mL TBO equivalent",tendencies of progressive reduction
same,Cell reduction without irradiation (dark toxicity),"[3]; TBO series, L-S+",did not return any cell reduction
same,Antimicrobial effect of laser exposure (reduction of viable cells),[4]; [7],tendencies of progressive reduction
same,Cell reduction without irradiation (dark toxicity),[4]; L-S+,did not return any cell reduction
same,Antimicrobial effect of laser exposure (reduction of viable cells),"[5]; TBO series, L+S+, red laser, 0.2 mg/mL TBO equivalent, MRSA",tendencies of progressive reduction
same,Cell reduction without irradiation (dark toxicity),"[5]; TBO series, L-S+, MRSA",did not return any cell reduction
same,Antimicrobial effect of laser exposure (reduction of viable cells),[6]; [7],tendencies of progressive reduction
same,Cell reduction without irradiation (dark toxicity),[6]; L-S+,did not return any cell reduction
"O=C([O-])c1c(Cl)c(Cl)c(Cl)c(Cl)c1-c1c2cc(I)c(=O)c(I)c-2oc2c(I)c([O-])c(I)cc12.[Na+].[Na+] [RB, Rose Bengal]",Antimicrobial activity (Log10 reduction of viable cells),[3]; RB series,exhibit antimicrobial activity
same,Antimicrobial activity (Log10 reduction of viable cells),[5]; RB series,exhibit antimicrobial activity
"O=C1OC2(c3ccccc31)c1cc(I)c(O)c(I)c1Oc1c2cc(I)c(O)c1I [ERY, Erythrosin B]",Antimicrobial activity (Log10 reduction of viable cells),[3]; ERY series,exhibit antimicrobial activity; also recorded: not as effective as RB
same,Antimicrobial activity (Log10 reduction of viable cells),[5]; ERY series,exhibit antimicrobial activity; also recorded: not as effective as RB
